# Patent publication US12194071B2, “Methods and compositions with purified Bombyx mori cocoon silk peptide fiber and refined Buglossoides arvensis seed oil providing anti-inflammatory effects and neuroprotection for disease states” (Brain Health Holding LLC, priority 2019, dated 2025)
# Assays:
# TNF-α = test: LPS-induced TNF-α production in RAW264.7 cells (ELISA); format: cell-based, mouse; conditions: for reduction in LPS-induced TNF-α production: study challenging RAW264.7 cells in 3 batches; for reduction in LPS-induced TNF-α production, RAW264.7 cells: omega-3/omega-6 study with DHA EE, EPA EE, SDA EE (toxic amount of SDA EE)
# Protocol: RAW264.7 cells were seeded in 96 well plates at a density of 20,000 cells/well. On day 2, the cells were serum starved for 24 h in DMEM. Then, the cells were pre-treated with 60 μg/ml of Peptylin® alone or in combination with 50 μM or 100 μM NeurXcel® EE diluted in DMEM. Appropriate vehicle controls have been included, i.e. 0.5% EtOH+1.2% H2O. On day 4 the cells were LPS-induced (500 ng/ml) for 1.5 h and the supernatants were collected. A WST-8 assay was performed to measure cell viability and the supernatants were used for an ELISA assay to measure TNF-α levels. All the experiments were carried out with 9 replicates (for control and LPS treated cells) or 24 replicates (for cells treated with NX and/or PT). A t-test was used to compare the media of TNF-α levels between the treatment of NX alone and in combination with PT.
# 3.4 Experimental procedure RAW264.7 cells were seeded in 96-well plates at a density of 20,000 cells/well in DMEM+10% FBS. The next day, the cells were washed once with DPBS and serum starved for 24 h in 150 μL of DMEM. Then, the cells were treated with 150 μL of 60 μg/ml of Peptylin® and 100 or 50 μM NeurXcel® EE that were used either alone or in combination. Appropriate vehicle controls were also included in the assay, i.e. 0.5% ethanol+1.2% H2O. After 24 h, the cells were incubated for 1.5 h with 10 μL of LPS (7500 ng/ml) to reach a final concentration of 500 ng/ml. After the incubation, the supernatants were collected and a WST-8 assay was carried out. CCK-8 reagent (WST-8) was diluted 1:10 in DMEM media and 100 μL were added to each well and the plate was incubated at 37° C. After 15 minutes the absorbance was measured at 450 nm using the Synergy II microplate reader. WST-8 is bioreduced by cellular dehydrogenases to an orange formazan product that is soluble in tissue culture medium. The amount of formazan produced is directly proportional to the number of living cells. The ELISA assay was performed following the manufacturer's instructions. The TNF-α levels produced under each condition were normalized to the corresponding vehicle control (with or without EtOH). All the experiments were carried out with 9 replicates (for control and LPS treated cells) or 24 replicates (for cells treated with NX and/or PT). […] Using Microsoft Excel the following formula was used to calculate the p-value: =T.TEST (array1, array2, tails, type), where array1 corresponds to the TNF-α values for one treatment, array2 corresponds to TNF-α values for the co-treatment, one-tail test has been considered and type is 2 (two sample equal variance t-test). A p-value of 0.05 was used as the cutoff for significance.
# After the treatments, the supernatants were collected and an ELISA assay was performed. First, the standard curve was generated (FIG. 43).
# The TNF-α standard was measured in 8 serial 1:2 dilutions ranging from 0-4000 pg/ml. TNF-α production was measured by ELISA. Control: cells maintained in DMEM; LPS: LPS-induced cells in DMEM+0.5% EtOH+1.2% H2O; PT: cells pre-treated with 60 μg/ml of Peptylin® for 24 h; 50 NX and 100 NX: cells treated with 50 or 100 μM NX for 24 h; 50NX+PT and 100NX+PT: cells pre-treated with 50 or 100 μM NX and 60 μg/ml PT for 24 h. Then the cells were induced with 500 ng/ml LPS for 1.5 h. The data represent the mean±SD of an experiment performed in nine replicates (for Cntr and LPS) or 24 replicates (for PT and NX treatments). NS: non-significant; *** p<0.001.
# TNF-alpha = test: LPS-induced TNF-alpha production in BV-2 cells; format: cell-based; conditions: compared with LPS controls
# [1] = test system: Reactive Oxygen Species (ROS) within SH-SY5Y neuroblastoma cells; test: H2O2-induced Reactive Oxygen Species generation in SH-SY5Y cells (DCF-DA); format: cell-based, human; conditions: Example 12
# Protocol: Reactive Oxygen Species (ROS) within cells can be quantified by indexing using the fluorescent probe 2′,7′-dichlorofluroescin diacetate (DCF-DA) (Sigma-Aldrich, USA). When oxidized to the reactive oxygen metabolite, the DCF-DA can be excited at 485 nm and releases fluorescence at 530 nm.
# SH-SY5Y neuroblastoma cells were incubated with 100 μl of 10% 1-BS/MEM in a 5×10^4 cells/well 96-well plate and cultured 24 hours, as in Example 1. The 10% FBS/MEM was removed and 1% FBS/MEM added to the cells. Composition A, B, C, D, or E was administered, and then DCF-DA in keeping with the DCF-DA assay described above.
# After 4 hours, a 0.25 uM solution of H2O2 (a toxicity-inducing substance) was administered. Incubation time was for 2 hours before fluorescence test. Subsequently, fluorescence was measured at 530 nm to assess the level of active oxygen production.
# In Examples 8 and 9, SH-SY5Y cells were exposed in separate, parallel models to H2O2 and FeSO4 to induce controlled cell death, but instead of analyzing cell viability in the presence of various active compounds, reactive oxygen species (ROS) generation was measured in the presence of various formulations, following peer-reviewed published methods. […]
# Reactive oxygen species generation induced by H2O2 was measured by incubation with a fluorescent probe 2′,7′-dichlorofluorescin diacetate (DCF-DA). […]
SMILES,reduction in LPS-induced TNF-α production (TNF-α),"reduction in LPS-induced TNF-α production, RAW264.7 cells (TNF-α)",other results
CCCCC/C=C\C/C=C\C/C=C\CCCCCCC(=O)OCC [DGLA EE],11-18%,–,–
CC/C=C\C/C=C\C/C=C\C/C=C\C/C=C\C/C=C\CCC(=O)OCC [DHA EE],–,21-42%,–
"CC/C=C\C/C=C\C/C=C\C/C=C\C/C=C\CCCC(=O)OCC [EPA EE, eicosapentaenoic acid, ethyl ester]",–,32%,"reduction in LPS-induced TNF-alpha production, BV-2 cells (TNF-alpha; another study): 18%; reduction in LPS-induced TNF-alpha production, BV-2 cells (TNF-alpha; study in which EPA EE gave 25%): 25%; reduction in LPS-induced TNF-alpha production, BV-2 cells (TNF-alpha; third study): 27-33%"
"CC(=O)N[C@@H](CS)C(=O)O [NAC, N-Acetyl-L-cysteine]",–,–,restoration of SH-SY5Y cells (positive control group) [1]: restored to normal levels
CC/C=C\C/C=C\C/C=C\C/C=C\CCCCC(=O)OCC [SDA EE],16-24%,35-71%,–
